# Data taken from patent US20110165136A1, “Novel Herbal Composition for Treatment of Psoriasis and Other Skin Disorders” (HIMALAYA GLOBAL HOLDINGS LTD., priority 2010, published 2011).
# Tested on: Mouse tail
# Experiment: Topical anti-psoriatic activity by Mouse tail test
# Format: in vivo
# Conditions: follow up study, 0.005%
# Excerpt: Pharmacological Screening of the Extracts and Oils for Topical Anti-Psoriatic Activity by Mouse Tail Test The composite extracts, oils blends and individual alcohol extracts were subjected to screening for evaluation of Anti-psoriatic activity by Mouse tail test and the results are summarized as FIG. 1-4.
smiles,measurement,value
C=C1/C(=C\C=C2/CCC[C@]3(C)[C@@H]([C@H](C)/C=C/[C@@H](O)C4CC4)CC[C@@H]23)C[C@@H](O)C[C@@H]1O [Calcipotriol],para to orthokeratosis conversion,not found to be statistically significant
